Measured values published in US20070248727A1, “Method for Removing Hydrohydroquinone” (KAO CORPORATION, priority 2004, published 2007).

Test system: rats
Assay: Urinary hydrogen peroxide level after giving coffee to rats
Type: in vivo
Details: rats given coffee
Text: It is therefore desired to remove hydroxyhydroquinone from coffee.

## Oc1ccc(O)c(O)c1 [hydroxyhydroquinone]
  generation of hydrogen peroxide in the bodies: caused by hydroxyhydroquinone
